Test results: patent publication EP0136831A2, “Azahomoerythromycin B derivatives and intermediates thereof” (PFIZER INC., priority 1983, dated 1985)
In brackets after ≈: the same amount, converted by molar mass. Like-named read-outs stand apart in the source and are kept apart here.

Tests used:
Kleb. pn. = assay: MIC in brain heart infusion (BHI) broth; assay type: cell-based; conditions: for MIC: strain 009
E. coli = assay: MIC in brain heart infusion (BHI) broth; assay type: cell-based; conditions: Escherichia coli
Ent. aerog. = assay: MIC in brain heart infusion (BHI) broth; assay type: cell-based; conditions: strain 040
Ent. cloac. = assay: MIC in brain heart infusion (BHI) broth; assay type: cell-based; conditions: strain 009
Excerpt: (§1) Generally twelve 2 fold dilutions of the test compound. are employed, with initial concentration of the test drug being in the range of 50 to 200 mcg/ml. The susceptibility (MIC) of the test organism is accepted as the lowest concentration of compound capable of producing complete inhibition of growth as judged by the naked eye.

Serr. mar. = assay: MIC in brain heart infusion (BHI) broth; assay type: cell-based; conditions: strain 017
Excerpt: as §1

Staph. epi = assay: MIC in brain heart infusion (BHI) broth; assay type: cell-based; conditions: strain 111
Excerpt: as §1

Kleb. oxy. = assay: MIC in brain heart infusion (BHI) broth; assay type: cell-based; conditions: strain 024
Excerpt: as §1

Strep. pyog. = assay: MIC in brain heart infusion (BHI) broth; assay type: cell-based; conditions: strain 203
Excerpt: as §1

H. influ. = assay: MIC in brain heart infusion (BHI) broth; assay type: cell-based
Excerpt: as §1

Neiss. sic. = assay: MIC in brain heart infusion (BHI) broth; assay type: cell-based; conditions: strain 000
Excerpt: as §1

Past. mult. = assay: MIC in brain heart infusion (BHI) broth; assay type: cell-based; conditions: strain 001
Excerpt: as §1

Prov. strua. = assay: MIC in brain heart infusion (BHI) broth; assay type: cell-based; conditions: strain 013
Excerpt: as §1

Strep. faec. = assay: MIC in brain heart infusion (BHI) broth; assay type: cell-based; conditions: strain 006
Excerpt: as §1

Staph. aur. = assay: MIC in brain heart infusion (BHI) broth; assay type: cell-based
Excerpt: as §1

[1] = Microbiological (bioassay) determination of serum levels after oral dosage; assay type: in vivo; conditions: mice
Procedure: Additionally, the compounds (II) and (VI) are tested in vivo by the well-known mouse protection test, or by a microbiological (bioassay) determination of serum levels in a variety of mammals (e.g., mouse, rat, dog).

[2] = strain 036, read-out: MIC Values
[3] = strain 038, read-out: MIC Values
[4] = strain 042, read-out: MIC Values
[5] = strain 051, read-out: MIC Values
[6] = strain 073, read-out: MIC Values
[7] = strain 078, read-out: MIC Values
[8] = strain 081, read-out: MIC Values

| SMILES | MIC (Kleb. pn.) [µg/mL] | MIC (E. coli; strain 125) [µg/mL] | MIC (E. coli; strain 129) [µg/mL] | MIC (E. coli; strain 266) [µg/mL] | MIC (E. coli; strain 470) [µg/mL] | MIC (Ent. aerog.) [µg/mL] | MIC (Ent. cloac.) [µg/mL] | MIC (Serr. mar.) [µg/mL] | MIC (Staph. epi) [µg/mL] | MIC (Kleb. oxy.) [µg/mL] | MIC (Strep. pyog.) [µg/mL] | MIC (Past. mult.) [µg/mL] | MIC (Prov. strua.) [µg/mL] | MIC (Strep. faec.) [µg/mL] | MIC (Staph. aur.; strain 005) [µg/mL] | MIC (Staph. aur.; strain 052) [µg/mL] | MIC (Staph. aur.; strain 400) [µg/mL] | MIC (H. influ.; [2]) [µg/mL] | MIC (H. influ.; [3]) [µg/mL] | MIC (H. influ.; [4]) [µg/mL] | other results |
| --- | --- | --- | --- | --- | --- | --- | --- | --- | --- | --- | --- | --- | --- | --- | --- | --- | --- | --- | --- | --- | --- |
| CC[C@H]1OC(=O)[C@H](C)[C@@H](O[C@H]2C[C@@](C)(OC)[C@@H](O)[C@H](C)O2)[C@H](C)[C@@H](O[C@@H]2O[C@H](C)C[C@H](N(C)C)[C@H]2O)[C@](C)(O)C[C@@H](C)C(=O)[C@H](C)[C@@H](O)[C@]1(C)O [(1), Erythromycin A] | > 50 | > 50 | > 50 | > 50 | 1.56 (≈ 2.13 µM) | > 50 | > 50 | > 50 | 0.05 (≈ 0.0681 µM) | > 50 | 0.025 (≈ 0.0341 µM) | 0.78 (≈ 1.06 µM) | > 50 | 0.39 (≈ 0.531 µM) | 0.05 (≈ 0.0681 µM) | 0.1 (≈ 0.136 µM) | 6.25 (≈ 8.52 µM) |  |  |  | MIC (H. influ.; read-out: MIC Values, strain 012): 3.12 µg/mL (≈ 4.25 µM); MIC (H. influ.; read-out: MIC Values, strain 036): 3.12 µg/mL (≈ 4.25 µM); MIC (H. influ.; read-out: MIC Values, strain 038): 1.56 µg/mL (≈ 2.13 µM); MIC (H. influ.; read-out: MIC Values, strain 042): 3.12 µg/mL (≈ 4.25 µM); MIC (H. influ.; read-out: MIC Values, strain 051): 3.12 µg/mL (≈ 4.25 µM); MIC (H. influ.; read-out: MIC Values, strain 073): 3.12 µg/mL (≈ 4.25 µM); MIC (H. influ.; read-out: MIC Values, strain 078): 1.56 µg/mL (≈ 2.13 µM); MIC (H. influ.; read-out: MIC Values, strain 081): 3.12 µg/mL (≈ 4.25 µM); MIC (Neiss. sic.): 3.12 µg/mL (≈ 4.25 µM) |
| CC[C@H]1OC(=O)[C@H](C)[C@@H](O[C@H]2C[C@@](C)(OC)[C@@H](O)[C@H](C)O2)[C@H](C)[C@@H](O[C@@H]2O[C@H](C)C[C@H](N(C)C)[C@H]2O)[C@](C)(O)C[C@@H](C)CN(C)[C@H](C)[C@@H](O)[C@H]1C [compound (II), 9-Deoxo-9a-methyl-9a-aza-9a-homoerythromycin B] | 50 (≈ 68.2 µM) | 50 (≈ 68.2 µM) | 25 (≈ 34.1 µM) | 25 (≈ 34.1 µM) | 0.39 (≈ 0.532 µM) | > 50 | > 50 | > 50 | 0.2 (≈ 0.273 µM) | 50 (≈ 68.2 µM) | 0.025 (≈ 0.0341 µM) | 0.1 (≈ 0.136 µM) | > 50 | 1.56 (≈ 2.13 µM) | 0.39 (≈ 0.532 µM) | 0.39 (≈ 0.532 µM) | > 50 | 3.12 (≈ 4.26 µM) | 3.12 (≈ 4.26 µM) | 1.56 (≈ 2.13 µM) | MIC Values (Kleb. pn.; strain 031): 50 µg/mL (≈ 68.2 µM); absorption after oral dosage [1]: exceptionally well absorbed; serum levels [1]: exceptionally high and long lasting; MIC (H. influ.; strain 012, read-out: MIC Values): 1.56 µg/mL (≈ 2.13 µM); MIC (H. influ.; [5]): 3.12 µg/mL (≈ 4.26 µM); MIC (H. influ.; [6]): 0.2 µg/mL (≈ 0.273 µM); MIC (H. influ.; [7]): 0.78 µg/mL (≈ 1.06 µM); MIC (H. influ.; [8]): 1.56 µg/mL (≈ 2.13 µM) |
| CC[C@H]1OC(=O)[C@H](C)[C@@H](O[C@H]2C[C@@](C)(OC)[C@@H](O)[C@H](C)O2)[C@H](C)[C@@H](O[C@@H]2O[C@H](C)C[C@H](N(C)C)[C@H]2O)[C@](C)(O)C[C@@H](C)CN(C)[C@H](C)[C@@H](O)[C@]1(C)O [(2), 9-Deoxo-9a-methyl-9a-aza-9a-homoerythromycin A] |  |  | 6.25 (≈ 8.34 µM) | 6.25 (≈ 8.34 µM) | 0.78 (≈ 1.04 µM) |  | 25 (≈ 33.4 µM) |  | 0.1 (≈ 0.134 µM) | 25 (≈ 33.4 µM) | 0.025 (≈ 0.0334 µM) | 0.1 (≈ 0.134 µM) | 50 (≈ 66.8 µM) | 1.56 (≈ 2.08 µM) | 0.2 (≈ 0.267 µM) | 0.39 (≈ 0.521 µM) | 25 (≈ 33.4 µM) | 0.78 (≈ 1.04 µM) | 0.78 (≈ 1.04 µM) | 0.78 (≈ 1.04 µM) | MIC (H. influ.; [5]): 1.56 µg/mL (≈ 2.08 µM); MIC (H. influ.; [6]): 0.78 µg/mL (≈ 1.04 µM); MIC (H. influ.; [7]): 0.39 µg/mL (≈ 0.521 µM); MIC (H. influ.; [8]): 0.78 µg/mL (≈ 1.04 µM) |
